Measured values published in patent US20050163850A1, “Administration of levodopa and carbidopa” (priority 2003, published 2005).
Several values for one entry are separate records, joined by “and”; a condition that tells them apart may be missing. Equal entries are not always repeated. Where two headings read alike, the source gives them in different places.

What was measured:
[1] = after oral administration; cited from earlier work
[2] = iv, 0.4 mg levodopa/kg, individual rats 1-3 (Table D)
[3] = Intravenous levodopa group of Example 10, levodopa plasma level; type: in vivo; details: 0.4 mg levodopa/kg, individual rats 1-3 (Table C)
Description: Another group of rats were treated with levodopa intravenously, at a dose of 0.4 mg/kg.

[4] = cited from earlier work
[5] = with carbidopa; cited from earlier work
in vivo = details: rat, plasma, iv, 0.4 mg/kg, Plasma level (levodopa), 0.4 mg levodopa/kg, individual rats 1-3 (Table D)
[6] = cited from earlier work; remark: listed apart in the source
[7] = duodenal, 2 mg levodopa lauryl sulfate/rat (0.85 mg levodopa equivalent/rat), individual rats

Structure (SMILES): N[C@@H](Cc1ccc(O)c(O)c1)C(=O)O [Levodopa, (−)-L-(alpha)-amino-(beta)-(3,4-dihydroxybenzene) propanoic acid]
- time within which practically all absorption of levodopa occurs [1]: ≤ 4 h
- Plasma level (levodopa) ([2]; time 0 h): 0 ng/mL
- Plasma level (levodopa) ([2]; time 0.033 h): 336 ng/mL and 247 ng/mL and 690 ng/mL
- Plasma level (levodopa) ([2]; time 0.5 h): 16 ng/mL and 11.4 ng/mL and 41.6 ng/mL
- Plasma level (levodopa) ([2]; time 1 h): 7.34 ng/mL and 11.5 ng/mL and 18.2 ng/mL
- Plasma level (levodopa) ([2]; time 1.5 h): 6.51 ng/mL and 0 ng/mL and 13.8 ng/mL
- Plasma level (levodopa) ([2]; time 2 h): 0 ng/mL and 5.82 ng/mL and 8.23 ng/mL
- Plasma level (levodopa) ([2]; time 3 h): 0 ng/ml (2×) and 5.53 ng/ml
- Plasma level (levodopa) ([3]; time 0 h): 0 ng/mL
- Plasma level (levodopa) ([3]; time 0.033 h): 336 ng/mL and 247 ng/mL and 690 ng/mL
- Plasma level (levodopa) ([3]; time 0.5 h): 16 ng/mL and 11.4 ng/mL and 41.6 ng/mL
- Plasma level (levodopa) ([3]; time 1 h): 7.34 ng/mL and 11.5 ng/mL and 18.2 ng/mL
- Plasma level (levodopa) ([3]; time 1.5 h): 6.51 ng/mL and 0 ng/mL and 13.8 ng/mL
- Plasma level (levodopa) ([3]; time 2 h): 0 ng/mL and 5.82 ng/mL and 8.23 ng/mL
- Plasma level (levodopa) ([3]; time 3 h): 0 ng/ml (2×) and 5.53 ng/ml
- concentration at 0 h ([3]; Sprague-Dawley, rat, plasma, 0.4 mg/kg, time 0 h): 0 ng/mL
- solubility in water [4]: slightly soluble in water
- plasma half-life of levodopa [5]: 1.5 h
- concentration at 0 h (in vivo): 0 ng/mL
- average intraindividual coefficient of variation for the plasma levodopa concentrations ([6]; after oral therapy (sustained-release tablets)): 34%
- average intraindividual coefficient of variation for the plasma levodopa concentrations ([6]; during continuous intestinal infusion, p<0.01): 14%

Structure (SMILES): C[C@@](Cc1ccc(O)c(O)c1)(NN)C(=O)O [Carbidopa, (−)-L-((alpha)-hydrazino-((alpha)-methyl-(beta)-(3,4-dihydroxybenzene)propanoic acid monohydrate]
- solubility in water [4]: slightly soluble in water

Structure (SMILES): CCCCCCCCCCCCOS(=O)(=O)O.N[C@@H](Cc1ccc(O)c(O)c1)C(=O)O [Levodopa lauryl sulfate, Levodopa-Lauryl Sulfate Complex]
- Plasma level (levodopa) ([7]; time 0 h): 9.42 ng/mL and 8.7 ng/mL and 8.55 ng/mL
- Plasma level (levodopa) ([7]; time 1 h): 57.3 ng/mL and 51.3 ng/mL and 43.7 ng/mL
- Plasma level (levodopa) ([7]; time 2 h): 21.3 ng/mL and 22 ng/mL and 9.24 ng/mL
- Plasma level (levodopa) ([7]; time 3 h): 12 ng/mL and 11.6 ng/mL and 24 ng/mL
- Plasma level (levodopa) ([7]; time 4 h): 8.07 ng/mL and 7.45 ng/mL and 19.6 ng/mL
